Results published in patent US20250353891A1 (MEDIMMUNE LIMITED, priority 2022, published 2025).
Starred links: 1 amine or outer side, 2 acyl side, 3 side chain; linkers in the order of their positions; H or OH if unused. Non-standard residues stand in square brackets, D forms with d. Residues, ends and D or L forms follow the SMILES beside them. Groups on a side chain read outwards from the residue. *: point of attachment. C18 diacid = O=C(O)CCCCCCCCCCCCCCCCC(=O)*; γGlu = O=C(O)[C@H](CCC(=O)[*:2])N[*:1]; αMeF = C[C@](N)(Cc1ccccc1)C(=O)O; Aib = CC(C)(N)C(=O)O

Columns and labels:
[1] = Mouse acute food intake study; format: in vivo; details: male C57Bl/6 mice, s.c., dose 10 nmol/kg, cumulative food intake at 24 hr vs vehicle
In short: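 Single-housed male C57Bl/6 mice (8-9 weeks on arrival), chow-fed, acclimated and sham-dosed ≥2 times, were fasted 6-8 h, then given vehicle or peptide subcutaneously at 5 mL/kg 1-2 h before lights out. Food intake was recorded automatically over 48 h and analysed as cumulative intake.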

[2] = molecular target: human GLP-1 receptor (hGLP-1R) (Homo sapiens, UniProt P43220); experiment: cAMP production (HTRF) in CHO cells expressing hGLP-1R; format: cell-based; parameters: expressed in transfected cells
In short: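 Read-out: HTRF cAMP (anti-cAMP cryptate donor, cAMP-d2 acceptor in conjugate/lysis buffer), converted to % Delta F and fitted by 4-parameter logistic for EC50. Cell densities were 1×10^5 cells/mL (hGLP-1R) or 2×10^5 cells/mL (hGCGR). Stimulation lasted 30 min at room temperature.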

[3] = Proteolytic resistance to FasSSGF containing porcine pancreatic pepsin; format: in vitro ADME; details: pig, simulated gastric fluid
In short: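 Peptide (250 μM stock in FasSSGF) mixed 1:1 with porcine pepsin stock (0.5 mg/mL in FasSSGF) and held at 37° C; samples at 0, 5, 10, 15 and 30 min quenched in ammonium bicarbonate, pH 8. Intact peptide remaining estimated by RP-HPLC peak area, UV 210 nm.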

[4] = tested on: wildtype (WT) mice; experiment: Glucose change in wildtype mice; format: in vivo, mouse; details: s.c., 120 min vs 0 min, somatostatin pretreatment (octreotide) 30 min prior to cpd
In short: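 Wildtype mice aged 8-14 weeks, fasted 2 h, sometimes pre-treated with octreotide 10 mg/kg 30 min before peptide injection. Blood glucose by glucometer at -30, 0, 30, 60, 120, 180, 240 and 360 min; n=4-8/group, mice reused up to 3 times with ≥1 week wash-out.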

[5] = tested on: GLP-1R knockout (KO) mice; experiment: Glucose change in GLP-1R knockout mice; format: in vivo, mouse; details: GLP-1R KO mice, s.c., 120 min vs 0 min, somatostatin pretreatment (octreotide) 30 min prior to cpd
In short: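 GLP-1R knockout mice (n=4-8/group, sorted by body weight) were fasted 2 h, and in some studies pretreated with octreotide 10 mg/kg 30 min before peptide injection. Mice were reused up to 3 times with at least 1-week wash-out.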

Chain of human GLP-1 receptor (hGLP-1R) (P43220 24-463): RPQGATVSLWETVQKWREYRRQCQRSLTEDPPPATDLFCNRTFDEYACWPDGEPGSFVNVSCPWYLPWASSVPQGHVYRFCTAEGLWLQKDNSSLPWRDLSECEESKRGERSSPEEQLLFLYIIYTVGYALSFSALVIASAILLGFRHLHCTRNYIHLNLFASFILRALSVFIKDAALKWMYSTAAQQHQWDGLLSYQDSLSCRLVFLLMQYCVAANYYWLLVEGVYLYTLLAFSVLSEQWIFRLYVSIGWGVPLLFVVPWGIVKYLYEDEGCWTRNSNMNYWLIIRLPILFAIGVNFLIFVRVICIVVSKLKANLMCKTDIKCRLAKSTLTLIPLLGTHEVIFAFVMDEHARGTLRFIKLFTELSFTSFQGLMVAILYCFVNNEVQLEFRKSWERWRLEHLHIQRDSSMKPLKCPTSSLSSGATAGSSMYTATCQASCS

**Q.** With `CC[C@H](C)[C@H](NC(=O)[C@H](Cc1c[nH]c2ccccc12)NC(=O)[C@H](CCC(=O)O)NC(=O)[C@@H](NC(=O)[C@](C)(Cc1ccccc1)NC(=O)[C@H](CC(=O)O)NC(=O)[C@H](CCC(N)=O)NC(=O)[C@H](C)NC(=O)[C@H](C)NC(=O)[C@H](CCCCNC(=O)CC[C@H](NC(=O)CCCCCCCCCCCCCCCCC(=O)O)C(=O)O)NC(=O)[C@H](CO)NC(=O)[C@H](CC(=O)O)NC(=O)[C@H](CC(C)C)NC(=O)[C@](C)(Cc1ccccc1)NC(=O)[C@H](CCCCN)NC(=O)[C@H](CO)NC(=O)[C@@H](NC(=O)[C@H](CC(=O)O)NC(=O)[C@H](CO)NC(=O)[C@@H](NC(=O)[C@](C)(Cc1ccccc1)NC(=O)[C@H](CO)NC(=O)CNC(=O)[C@H](Cc1c[nH]cn1)NC(=O)C(C)(C)NC(=O)[C@@H](N)Cc1c[nH]cn1)[C@@H](C)O)C(C)C)C(C)C)C(=O)N[C@@H](C)C(=O)N[C@@H](CC(N)=O)C(=O)N[C@H](C(N)=O)[C@@H](C)O` [Peptide 7] (H-H[Aib]HGS[αMeF]TSDVSK[αMeF]LDSK([γGlu-C18 diacid])AAQD[αMeF]VEWIANT-NH2; N-terminus assumed) as the compound, how does the “24 hr % Vehicle Food Intake” value [1] read?
**A.** 55.0%

**Q.** And the EC50 ([2]; Table 6, peptides modified at position 17, cAMP in CHO hGLP-1R cells, geometric mean, read-out: hGLP-1R EC50)?
**A.** 0.0846 nM

**Q.** What about the “% Relative Potency Ratio” value ([2]; Table 6, % GLP-1R activity relative to GLP-1 / % GlucR activity relative to glucagon) of the same compound?
**A.** 0.7

**Q.** What about the remaining at 5 min, 125 µM [3] of the same compound?
**A.** 81%

**Q.** And the remaining at 0.25 h, 125 µM [3]?
**A.** 35%

**Q.** And the remaining at 0.5 h, 125 µM [3]?
**A.** 18%

**Q.** What about the “WT % glucose change 120 min” value ([4]; 1.5 nmol/kg) of the same compound?
**A.** 5.4%

**Q.** What about the “WT % glucose change 120 min” value ([4]; 5 nmol/kg) of the same compound?
**A.** −21.2%

**Q.** What about the “GLP-1R KO % glucose change 120 min” value ([5]; 1.5 nmol/kg) of the same compound?
**A.** 80.8%

**Q.** What about the “GLP-1R KO % glucose change 120 min” value ([5]; 5 nmol/kg) of the same compound?
**A.** 152.9%
